In assay [1] the target is T1, mouse Δ1–24-L-PGDS (lipocalin type prostaglandin D synthase) (Mus musculus, UniProt O09114, S45A/S81A/T67A).
T1 sequence (O09114 25-189 S45A/T67A/S81A): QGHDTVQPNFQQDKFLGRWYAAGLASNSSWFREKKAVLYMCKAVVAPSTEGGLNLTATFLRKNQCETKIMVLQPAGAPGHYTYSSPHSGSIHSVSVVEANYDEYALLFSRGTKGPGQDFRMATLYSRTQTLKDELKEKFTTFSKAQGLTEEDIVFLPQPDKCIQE
Nature of the assay: surface plasmon resonance. Format: binding. (In general: In SPR one partner is held on a chip, and binding of the other changes the refractive index at the surface.)

The target in assay [2] is T2, mouse Δ1–24-L-PGDS (lipocalin type prostaglandin D synthase) (Mus musculus, UniProt O09114, H111A/W54A).
T2 sequence (O09114 25-189 W54A/H111A): T1 sequence (O09114 25-189 S45A/T67A/S81A) with A21S, W30A, A43T, A57S, H87A
The assay is described as follows: surface plasmon resonance. Format: binding.

Assay [3] addresses T3, mouse Δ1–24-L-PGDS (lipocalin type prostaglandin D synthase) (Mus musculus, UniProt O09114, W54A).
T3 sequence (O09114 25-189 W54A): T1 sequence (O09114 25-189 S45A/T67A/S81A) with A21S, W30A, A43T, A57S
Nature of the assay: surface plasmon resonance. Format: binding.

Assay [4] concerns the target T4, mouse Δ1–24-L-PGDS (lipocalin type prostaglandin D synthase) (Mus musculus, UniProt O09114, T67A).
T4 sequence (O09114 25-189 T67A): T1 sequence (O09114 25-189 S45A/T67A/S81A) with A21S, A57S
The assay is described as follows: surface plasmon resonance. Format: binding.

In assay [5] the target is T5, mouse Δ1–24-L-PGDS (lipocalin type prostaglandin D synthase) (Mus musculus, UniProt O09114, C65A).
T5 sequence (O09114 25-189 C65A): T1 sequence (O09114 25-189 S45A/T67A/S81A) with A21S, C41A, A43T, A57S
Nature of the assay: surface plasmon resonance. Format: binding.

The target of assay [6] is T6, mouse Δ1–24-L-PGDS (lipocalin type prostaglandin D synthase) (Mus musculus, UniProt O09114, S81A).
T6 sequence (O09114 25-189 S81A): T1 sequence (O09114 25-189 S45A/T67A/S81A) with A21S, A43T
The assay is described as follows: surface plasmon resonance. Format: binding.

Assay [7] addresses T7, mouse Δ1–24-L-PGDS (lipocalin type prostaglandin D synthase) (Mus musculus, UniProt O09114).
T7 sequence (O09114 25-189): T1 sequence (O09114 25-189 S45A/T67A/S81A) with A21S, A43T, A57S
The assay is described as follows: PGDS assay, [[…]-14C]PGH2 to [[…]-14C]PGD2 by TLC. Format: biochemical.

The target of assay [8] is T8, Δ^1–24-C65A + W54A (Mus musculus, UniProt O09114, C65A/W54A).
T8 sequence (O09114 1-189 W54A/C65A): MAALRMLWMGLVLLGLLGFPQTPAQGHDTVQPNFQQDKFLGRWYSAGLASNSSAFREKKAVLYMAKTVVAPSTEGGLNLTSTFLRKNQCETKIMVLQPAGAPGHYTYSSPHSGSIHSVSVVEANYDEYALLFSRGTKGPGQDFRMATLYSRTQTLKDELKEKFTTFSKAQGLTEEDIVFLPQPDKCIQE
The assay is described as follows: biochemical.

Assay [9] has as its target T9, Δ^1–24-C65A + H111A (Mus musculus, UniProt O09114, C65A/H111A).
T9 sequence (O09114 1-189 C65A/H111A): T8 sequence (O09114 1-189 W54A/C65A) with A54W, H111A
The assay is described as follows: biochemical.

Assay [10] addresses T10, Δ^1–24-L-PGDS + S45A/T67A (Mus musculus, UniProt O09114, S45A/T67A).
T10 sequence (O09114 1-189 S45A/T67A): T8 sequence (O09114 1-189 W54A/C65A) with S45A, A54W, A65C, T67A
Nature of the assay: biochemical.

Assay [11] deals with T11, Δ^1–24-L-PGDS + T67A/S81A (Mus musculus, UniProt O09114, S81A/T67A).
T11 sequence (O09114 1-189 T67A/S81A): T8 sequence (O09114 1-189 W54A/C65A) with A54W, A65C, T67A, S81A
Nature of the assay: biochemical.

Where a chain is given by its changes, count along the chain named.

On to `CCCCC[C@H](O)/C=C/[C@H]1[C@@H]2CO[C@@H](C2)[C@@H]1C/C=C\CCCC(=O)O` [U-44069], for which the Kd in [1] stood at 12.9 ± 2.4 µM; in assay [2], 20.6 ± 1.4 µM; in assay [3], 20.3 ± 1.9 µM; in [4], 12.3 ± 3 µM; in assay [5], 20.2 ± 2.5 µM; in [6], 14.6 ± 2.4 µM. For the same compound, the dissociation constant Kd in [8] came out at 49.2 ± 3.7 µM; in assay [9], 38.1 ± 2.4 µM; in assay [10], 7.2 ± 1.6 µM; in assay [11], 13.5 ± 2.3 µM. This compound also registered a Ki in assay [7] of 30 µM.

`CCCCC[C@H](O)/C=C/[C@@H]1[C@@H](C/C=C\CCCC(=O)O)[C@H]2CO[C@@H]1C2` [U-46619]: the Kd in [1] was 22 ± 2 µM; in [2], 48.5 ± 4.4 µM; in assay [3] it was 44 ± 3.9 µM; in assay [4], 26.9 ± 5.3 µM; in assay [5], 22.1 ± 1.5 µM; in assay [6] it was 17 ± 1.7 µM. In addition, the Kd in assay [8] stood at 42.4 ± 3.4 µM; in [9], 37.2 ± 3.5 µM; in assay [10], 19.1 ± 2.5 µM; in assay [11], 19.6 ± 2.3 µM. In [7], this compound yielded a Ki of 36 µM.

As a reminder, the Kd is the concentration at which binding is half-saturated. Usually Ki stands for the equilibrium dissociation constant of an inhibitor or competing ligand from its target. Read a high Ki as a looser hold on the target.
